Experimental findings from publication PMC12190436, “5-Ene-2-arylaminothiazol-4(5H)-ones Induce Apoptosis in Breast Cancer Cells” (Cells, 2025) are described below.

One assay deals with SF-295. In kind it is cell-based. The following applies: for Growth %: SF-295, 10 μM, one dose, 48 h.
A further assay concerns NCI-H522. It is filed as cell-based.
Another assay has as its system caspase 9. Kind of assay: FLICA caspase-9 activity, flow cytometry. It is filed as cell-based, human. The following applies: 5 µM, 24 h, MCF-7. How it is done:
(§1) To determine the effects of the novel compounds on the caspases-3/7, caspase-8, caspase-9, and caspase-10 activity, the FLICA Caspase-3/7 Assay Kit, FLICA Caspase-8 Assay Kit, FLICA Caspase-9 Assay Kit, and FLICA Caspase-10 Assay Kit were applied (ImmunoChemistry Technologies, Bloomington, MN, USA). MCF-7 cells were seeded on 6-well plates (1 × 10^5 cells per well) and incubated for 24 h. Afterwards, they were treated for 24 h with tested compounds (Les-6416, Les-6418, Les-6381, Les-6423, and Les-6424) in a concentration of 5 µM and the reference drug doxorubicin hydrochloride in a concentration of 0.5 µM. Next, cells were amassed and washed two times with cold PBS, followed by resuspension in an Apoptosis Wash Buffer to a final concentration of 5 × 10^5 cells/mL. Afterwards, 290 µL of the prepared cell suspensions were transferred into tubes, followed by the addition of 10 µL of FLICA solution, prepared immediately before use, to each sample and incubated for an hour at 37 °C. Next, cells were washed two times with 2 mL of Apoptosis Wash Buffer, provided in the kit, centrifuged, and resuspended in 300 µL of the buffer. Prepared samples were assessed by a BD FACSCanto II flow cytometer (Becton Dickinson Biosciences, San Jose, CA, USA). For each sample, 1 × 10^4 events were analyzed. […]

The test system of another assay is caspase 10. Kind of assay: FLICA caspase-10 activity, flow cytometry. In kind it is cell-based, human. To be noted: 5 µM, 24 h, MCF-7. How it is done:
as §1
Background: In flow cytometry, cells or beads pass a laser one at a time.

The subject of a further assay is HT29. It is filed as cell-based.
The next assay relates to UACC-62. In kind it is cell-based.
The next assay concerns NCI-H460. In kind it is cell-based. To be noted: for Growth %: NCI-H460, 10 μM, one dose, 48 h.
The subject of another assay is SK-MEL-5. In kind it is cell-based.
The test system of the next assay is Bax. Kind of assay: Bax, anti-Bax FITC antibody flow cytometry. It is filed as cell-based, human. To be noted: 5 µM, 24 h, MCF-7. The procedure:
To evaluate the effects of the tested compounds on the concentration of Bax protein, anti-Bax FITC-conjugated antibody was applied. MCF-7 cells were seeded on 6-well plates at 5 × 10^6 cells per well, followed by incubation for 24 h. Afterwards, the cells were treated for 24 h with new 4-thiazolidinone derivatives (Les-6416, Les-6418, Les-6381, Les-6423, and Les-6424) at a concentration of 5 µM. Then, cells were collected and incubated with 4% formaldehyde for 15 min at RT. Next, cells were washed with an excess amount of PBS, followed by permeabilization by adding ice-cold 90% methanol and incubation for 60 min in an ice bath. Cells were again washed with an excess of PBS and resuspended in 100 µL of diluted primary antibody, prepared in antibody dilution buffer at a 1:100 dilution, and incubated for 60 min at room temperature in the dark. Cells were washed, resuspended in 0.3 mL, and transferred to the tubes for immediate assessment using a BD FACSCanto II flow cytometer (Becton Dickinson Biosciences, San Jose, CA, USA). For each sample, 1 × 10^4 events were analyzed. The results were analyzed using FACSDiva software Version 6.1.3 (BD Biosciences Systems, San Jose, CA, USA).
Another important protein for the intrinsic pathway of apoptosis is a pro-apoptotic member of the Bcl-2 family-Bax. […]

The next assay relates to MDA-MB-468. It is filed as cell-based.
The next assay concerns HL-60(TB). It is filed as cell-based.
The subject of a further assay is MCF-7 cells. As to the kind of experiment: Scratch assay (cell migration). To be noted: 24 h. It is filed as cell-based, human.
The test system of another assay is MDA-MB-435. In kind it is cell-based. The following applies: for Growth %: MDA-MB-435, 10 μM, one dose, 48 h.

Usually GI50 stands for the concentration at which growth is held to half of that of the control. The low end stands for more potent growth inhibition, the high end for less potent growth inhibition. For orientation: TGI means the concentration at which net growth stops. A high value points to lower sensitivity of the cells. A word on the LC50: it is the concentration lethal to half of the exposed cells or organisms. High values mean lower toxicity, low ones greater toxicity.

Structures can show the parent of a compound that is named as a salt.

Protocol for MCF-7 cells: To assess the effects of the tested compounds on cell migration, the scratch assay method was applied [34]. Cells were seeded in 24-well plates at 2 × 10^5 cells per well in 1 mL medium and incubated overnight. Afterwards, they were left in an incubator at 37 °C for 24 h to attach to the wells. The next day, scratches were made using a 200 µL pipette tip in confluent monolayers. […] Images were obtained by utilizing a Nikon ECLIPSE Ti microscope (Nikon, Tokyo, Japan) after 0, 24, and 48 h. The area of the scratches was measured manually via ImageJ software version 1.54k (Bethesda, MD, USA).
The MCF-7 breast cancer cells were treated for 24 h with the tested compounds in concentrations of 5, 2.5, and 1 µM and doxorubicin hydrochloride in concentrations of 1 and 0.5 µM.

On to `COc1cc(NC2=NC(=O)C(=Cc3ccc4cc[nH]c4c3)S2)cc(OC)c1OC` [Les-6416, 5-((1H-Indol-6-yl)methylene)-2-((3,4,5-trimethoxyphenyl)amino)thiazol-4(5H)-one], for which the Growth % was 5.01% in the assay on SF-295; 3.77% with NCI-H522 (NCI-H522, 10 μM, one dose, 48 h); 7.66% with HT29 (HT29, 10 μM, one dose, 48 h); 18.03% in the assay on UACC-62 (UACC-62, 10 μM, one dose, 48 h); 17.93% in the assay with NCI-H460; −4.74% in the assay on SK-MEL-5 (SK-Mel-5, 10 μM, one dose, 48 h). Moreover, the Growth % in the assay with MDA-MB-468 (MDA-MB-468, 10 μM, one dose, 48 h) is reported as 1.33%; in the assay with HL-60(TB) (HL60(TB), 10 μM, one dose, 48 h), 15.10%; with MDA-MB-435, −33.26%. The “cells with active caspase 9” value in the assay on caspase 9 is reported as 41.90 ± 6.89%. Besides, the “cells with active caspase 10” value in the assay with caspase 10 was 43.23 ± 2.85%. Besides, the “Bax positive cells, cell population” value in the assay with Bax is recorded as 12.27 ± 0.45%. Besides, the “Closure of the gap area” value with MCF-7 cells (1 µM) was determined as 21.00 ± 7.07%.

`COc1cccc2c1C(=O)c1c(O)c3c(c(O)c1C2=O)C[C@@](O)(C(=O)CO)C[C@@H]3O[C@H]1C[C@H](N)[C@H](O)[C@H](C)O1` [DOX, Doxorubicin hydrochloride, reference compound]: in the assay with MCF-7 cells (0.5 µM), the “Closure of the gap area” value was determined as 25.50 ± 20.51%.

For the molecule `COc1cc(NC2=NC(=O)C(=Cc3cccs3)S2)cc(OC)c1OC` [Les-6423, 5-(Thiophen-2-ylmethylene)-2-((3,4,5-trimethoxyphenyl)amino)thiazol-4(5H)-one], in the assay on caspase 9, the “cells with active caspase 9” value was “did not show any effect”. The “cells with active caspase 10” value in the assay on caspase 10 is given as “did not show any effect”.

On to `COc1cc(NC2=NC(=O)C(=Cc3c[nH]c4ccccc34)S2)cc(OC)c1OC` [Les-6418, 5-((1H-Indol-3-yl)methylene)-2-((3,4,5-trimethoxyphenyl)amino)thiazol-4(5H)-one], for which the concentration for 50% growth inhibition (GI50) was 2.27 µM in the assay with SF-295 (Homo sapiens, SF-295, 48 h); 0.403 µM with NCI-H522 (Homo sapiens, NCI-H522, 48 h); 0.923 µM in the assay on HT29 (Homo sapiens, HT-29, HT29, 48 h); 4.75 µM in the assay with UACC-62 (Homo sapiens, UACC-62, 48 h); 2.1 µM in the assay on NCI-H460 (Homo sapiens, NCI-H460, 48 h); 2.46 µM with SK-MEL-5 (Homo sapiens, SK-MEL-5, 48 h). The GI50 in the assay on MDA-MB-468 (Homo sapiens, MDA-MB-468, 48 h) came to 0.657 µM; in the assay on HL-60(TB) (Homo sapiens, HL-60(TB), 48 h) it was 0.855 µM; in the assay with MDA-MB-435 (Homo sapiens, MDA-MB-435, 48 h), 0.28 µM. The CC50 in the assay with SF-295 (Homo sapiens, SF-295, 48 h, read-out: LC50 (the source's name)) was found to be 40.9 µM; in the assay on NCI-H522 (Homo sapiens, NCI-H522, 48 h, read-out: LC50 (the source's name)) it was 46 µM; in the assay with HT29 (Homo sapiens, HT-29, HT29, 48 h, read-out: LC50 (the source's name)), 47.6 µM; in the assay with UACC-62 (Homo sapiens, UACC-62, 48 h, read-out: LC50 (the source's name)) it was 48.3 µM; in the assay on SK-MEL-5 (Homo sapiens, SK-MEL-5, 48 h, read-out: LC50 (the source's name)) it was 39.1 µM; with MDA-MB-468 (Homo sapiens, MDA-MB-468, 48 h, read-out: LC50 (the source's name)), 34.3 µM. The CC50 in the assay with HL-60(TB) (Homo sapiens, HL-60(TB), 48 h, read-out: LC50 (the source's name)) was > 100 µM. The Growth % in the assay on SF-295 is reported as −73.38%; in the assay with NCI-H460 it was −77.59%; with MDA-MB-435, −77.11%. The total growth inhibition concentration (TGI) in the assay on SF-295 (SF-295, 48 h) is 13.4 µM; with NCI-H522 (NCI-H522, 48 h) it was 5.56 µM; in the assay on HT29 (HT29, 48 h), 10.1 µM; in the assay on UACC-62 (UACC-62, 48 h), 19.7 µM; with NCI-H460 (NCI-H460, 48 h), 14.3 µM; in the assay with SK-MEL-5 (SK-MEL-5, 48 h), 14.1 µM. Also, the concentration for total growth inhibition (TGI) worked out at 6.23 µM with MDA-MB-468 (MDA-MB-468, 48 h); 11.1 µM with HL-60(TB) (HL-60(TB), 48 h); 0.940 µM in the assay on MDA-MB-435 (MDA-MB-435, 48 h). Moreover, the “SI (TGI)” value in the assay on SF-295 (SF-295, MG_MID_60/value) stood at 1.39; in the assay on NCI-H522 (NCI-H522, MG_MID_60/value), 3.34; with HT29 (HT29, MG_MID_60/value) it was 1.84; in the assay on UACC-62 (UACC-62, MG_MID_60/value), 0.94; in the assay with NCI-H460 (NCI-H460, MG_MID_60/value), 1.30; in the assay with SK-MEL-5 (SK-MEL-5, MG_MID_60/value), 1.32. The “SI (TGI)” value in the assay on MDA-MB-468 (MDA-MB-468, MG_MID_60/value) was 2.99; with HL-60(TB) (HL-60(TB), MG_MID_60/value), 1.68; in the assay with MDA-MB-435 (MDA-MB-435, MG_MID_60/value), 19.8. Further, the LC50 (50% lethal concentration) in the assay with NCI-H460 (Homo sapiens, NCI-H460, 48 h) came out at 92 µM. The “Bax positive cells, cell population” value with Bax was found to be 8.27 ± 0.58%. The LC50 in the assay on MDA-MB-435 (Homo sapiens, MDA-MB-435, 48 h) came out at 14.2 µM.
